This note sets out measurements from EP2170322B1, “METHODS OF MODIFYING AMYLOID ß OLIGOMERS USING NON-[…] COMPOUNDS” (Acumen Pharmaceuticals, Inc., priority 2007, dated 2009).

The experiment has as its target T1, Aβ1-42 (Homo sapiens, UniProt P05067).
T1 construct: containing 0.2 µM FITC-Aβ(1-42) and 0.8 µM Aβ(1-42)
The experiment can be described thus: FRET assay of Aβ1-42 oligomer (ADDL) assembly inhibition. The class given is biochemical. To be noted: for IC50: assay of Example 1, 0.2 µM FITC-Aβ(1-42) and 0.8 µM Aβ(1-42), 37°C, six concentrations from about 30 µM to about 0.05 µM. The text has this: Fluorescence (or Förster) Resonance Energy Transfer (FRET) is a distance-dependent, non-radiative transfer of energy in which the de-excitation of one fluorophore (donor) is coupled to excitation of another fluorophore (acceptor). FRET occurs if (1) the quantum of energy emitted by a donor fluorophore corresponds to an acceptor fluorophore's excitation energy, (2) the orientations of donor and acceptor transition dipoles are nearly parallel and (3) the donor fluorescent emission spectrum overlaps the acceptor absorption spectrum. In this assay, assembly of Aβ1-42 oligomer formation is monitored by FRET using N-terminal conjugates of fluorescein-Aβ1-42 as both the donor and acceptor fluorophore (fluorescein-fluorescein Ro~ 45 Ǻ). Aβ1-42 monomers assembling into oligomeric species results in a decrease of fluorescence as the fluorescein labeled Aβ1-42 peptides become proximal to each other and FRET efficiency increases. Inhibition of Aβ1-42 assembly is observed as the absence or attenuation of fluorescein quenching. FRET and FP assays are performed in 384-well Coming Non-Binding Surface, black, opaque microtiter plates, and the assay buffer consists of 50 mM MOPS-Tris (pH 8.0) with 100 mM MgCl2. The assay volume, containing 0.2 µM FITC-Aβ(1-42) and 0.8 µM Aβ(1-42), is 50 µl and the temperature is 37°C. ADDL assembly is monitored on a Tecan GENios Pro plate reader, exciting at a wavelength of 485 nm and detecting emission at a wavelength of 515 nm. Kinetic traces are collected by recording fluorescence intensity and polarization readings every five minutes over about a three to about a six-hour time course. […] Positive control reactions contain all buffer components in the absence of added small molecule or antibody reagents. To test for ADDL assembly inhibition, the non-peptidic compound was incubated with the peptide mixture at six concentrations from about 30 µM decreasing to about 0.05 µM.

T1 sequence (P05067 672-713 limits assumed): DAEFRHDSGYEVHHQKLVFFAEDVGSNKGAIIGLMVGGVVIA

In the case of `COc1ccccc1NC(=O)C(=O)N/N=C(/CC(=O)c1cccs1)C(F)(F)F` [Compound 1, N-(2-Methoxy-phenyl)-2-oxo-2-{N'-[3-oxo-3-thiophen-2-yl-1-trifluoromethyl-prop-(Z)-ylidene]-hydrazino}-acetamide], half-maximal inhibition (IC50) required 3.9 µM.
On the same count and under the same terms, the result for `CCOC(=O)c1c(NC(=O)C(=O)N/N=C/c2cccc(OC)c2O)sc2c1CCC(C)C2` (centres unmarked) [Compound 2, 2-{[1-(2-Hydroxy-3-methoxy-phenyl)-meth-(E)-ylidene-hydrazinooxalyl]-amino}-6-methyl-4,5,6,7-tetrahydro-benzo[b]thiophene-3-carboxylic acid ethyl ester] reads 3.5 µM; that for `COc1ccccc1NC(=O)C(=O)N1N=C(CC(C)C)CC1(O)C(F)(F)F` (centres unmarked) [Compound 5, 2-(5-hydroxy-3-isobutyl-5-(trifluoromethyl)-4,5-dihydro-1H-pyrazol-1-yl)-N-(2-methoxyphenyl)-2-oxoacetamide], 3.2 µM; that for `O=C(N/N=C/c1ccc2ccccc2c1O)c1ccccc1O` [Compound 6], 3.8 µM.
The same measure, in the same setting: the figure for `CCOC(=O)c1c(NC(=O)C(=O)N/N=C/c2c(O)ccc3ccccc23)sc2c1CCC(C)C2` (centres unmarked) [Compound 3, 2-{[1-(2-Hydroxynaphthalen-1-yl)-meth-(E)-ylidene-hydrazinooxalyl]-amino}-6-methyl-4,5,6,7-tetrahydro-benzo[b]thiophene-3-carboxylic acid ethyl ester] is 4.4 µM.
`CCOC(=O)c1c(NC(=O)C(=O)N/N=C/c2ccccc2O)sc2c1CCC(C)C2` (centres unmarked) [Compound 4, 2-{[1-(2-Hydroxyphenyl)-meth-(E)-ylidene-hydrazinooxalyl]-amino}-6-methyl-4,5,6,7-tetrahydro-benzo[b]thiophene-3-carboxylic acid ethyl ester] showed a half-maximal inhibitory concentration (IC50) of 1.1 µM. Also, where the note is “Test Compound A ranging from 0.05 to 3 mM, FIG. 1”, the “inhibition of Aβ1-42 oligomer assembly” value was “dose dependent inhibition”.
As for `NCCCS(=O)(=O)O` [Alzhemed, 3-amino-1-propanesulfonic acid, reference compound], the “inhibition of Aβ1-42 monomer assembly into Aβ oligomers” value (standard FRET assay conditions of Example 1, comparative example, FIG 2) is given as “inability”.

Broadly, the IC50 is the concentration that gives 50% inhibition. A low value points to inhibition by little substance.
